Experimental data: patent publication US20200129524A1, “PERSONALIZED CONTRACEPTIVE FORMULATIONS” (Agile Therapeutics, Inc., priority 2017, published 2020)

Experiments:
[1] = Free LNG circulating in plasma versus EE delivered (WO2016187269)
Description: However, ethinyl estradiol binds to SHBG and in the process it releases some of the bound LNG. Therefore if more or less than about 30 μg of EE are delivered from the contraceptive formulation, the required levels shown in FIGS. 3, 3a and 3b will have to be modified accordingly. […] Therefore the levels of required LNG can be calculated for any level of accompanied EE.

[2] = test system: healthy women; assay: Statistical (quadratic regression) analysis of LNG required dose with confidence limits; format: in vivo; design: dose required: unit: μg; settings: for Daily LNG Required Dose, 1.5% Pregnancy Rate Dose / Daily LNG Required Dose, 3% Pregnancy Rate Dose: EE 30 μg; for level of LNG equivalent: women with body weight of over 200 pounds, 30 μg EE per day
Excerpt: Z represents the applicable coefficient to obtain a desired level of confidence (e.g. a coefficient of two would imply a 95.5% confidence level and a coefficient of three would imply a 99.7% confidence level). The other variables are the same as indicated above. For example, the dose required for a 150 pound person assuming a 95% confidence level would be determined as follows: […]
Table 7 and FIG. 6 summarize the maximum and the minimum dose of levonorgestrel levels required at the 95.5% level of confidence (two standard deviation units, i.e., two σ) for varying woman BMI categories.
Table 7a and FIG. 6a summarize the maximum and the minimum dose of levonorgestrel levels required at the 68% level of confidence (one standard deviation unit, i.e., one σ) for varying woman BMI categories.
A review of the data points associated with Tables 4 and 5 reveal again a relationship which could be linear or quadratic. Again, since the data has substantial variability in the individual points a statistical analysis of the data was performed. The applicable linear and quadratic equations had correlation coefficients R2 of 0.73 for both 1.5 and 3% pregnancy rates. The standard error for the 1.5% pregnancy rate (linear VS quadratic) as well as the 3% pregnancy rate (linear versus quadratic) was within 10 micrograms of each other. […] We chose to draw FIGS. 4a and 4b based on the quadratic equations, so as to have an easier comparison to the corresponding body weight lines in FIGS. 3a and 3b.
As indicated above the implied equation is shown below, where the symbols Y and X are the same as presented above. The correlation coefficient R2 is 0.73 and the standard error 94.3 micrograms.
The correlation coefficient, R2 is 0.73 and the standard error 46.8. The above equation can be modified to provide a 95.5% confidence level as follows
Table 7 and FIG. 6 summarize the maximum and minimum dose of levonorgestrel levels required at the 95% confidence for varying woman BMI categories as determined from the modified equations described above.
Therefore another practical approach is to treat all women with body weight of over 200 pounds with the same formulations. For example for women co-administered 30 μg EE per day, the level of LNG equivalent would be 350 μg per day (for the 1.5% pregnancy level), and 200 μg per day (for the 3% pregnancy level). An intermediate level of 260 μg per day can also be prepared.

[3] = test system: healthy women; assay: Clinical trial of contraceptive effectiveness of a transdermal patch (% of women pregnant by weight or BMI category); format: in vivo; settings: 120 μg/d LNG + 30 μg/d EE patch, 13 cycles (one year)
Excerpt: To obtain the required data that would allow us to determine the personalized dosage of progestin required for each woman, we performed a clinical trial which is shown below as Example 1. When administered 120 micrograms per day of levonorgestrel (LNG), the number of women in each body weight category and the percent of the women in each category that became pregnant over a period of one year is shown in Table 1 and graphically depicted in FIG. 1.
In a clinical trial, 2032 healthy women, aged 18 and over, were enrolled in 102 investigative sites in the US. It was an open label, 13 cycle trial (one year) to study the effectiveness of a transdermal patch delivering 120 μg per day of levonorgestrel (LNG) and 30 μg per day of ethinyl estradiol (EE). The treatment regimen for each cycle was three consecutive 7-day patches (21 days) followed by one patch-free week.
The women enrolled in the different weight categories (in pounds) are shown in the second column of Table 1.
The percentage of women that became pregnant over the 13 cycle period is shown in column 3 of Table 1. A graph of the percentage of women that became pregnant in each weight category is also graphically illustrated in FIG. 1.
The same analysis was performed using the BMI of the women enrolled in the trial.

[4] = BMI >17.5 < 22.5, 68% confidence level, 30 μg EE
[5] = BMI >17.5 < 22.5, 95.5% confidence level, 30 μg EE
[6] = BMI >22.5 < 27.5, 68% confidence level, 30 μg EE
[7] = BMI >22.5 < 27.5, 95.5% confidence level, 30 μg EE
[8] = BMI >27.5 < 32.5, 68% confidence level, 30 μg EE
[9] = BMI >27.5 < 32.5, 95.5% confidence level, 30 μg EE
[10] = BMI >32.5 < 37.5, 68% confidence level, 30 μg EE
[11] = BMI >32.5 < 37.5, 95.5% confidence level, 30 μg EE
[12] = BMI >37.5 < 42.5, 68% confidence level, 30 μg EE
[13] = BMI >37.5 < 42.5, 95.5% confidence level, 30 μg EE
[14] = BMI >42.5 < 47.5, 68% confidence level, 30 μg EE
[15] = BMI >42.5 < 47.5, 95.5% confidence level, 30 μg EE
[16] = BMI >47.5 < 52.5, 68% confidence level, 30 μg EE
[17] = BMI >47.5 < 52.5, 95.5% confidence level, 30 μg EE
[18] = weight 90 to ≤120, 68% confidence level
[19] = weight 90 to ≤120, 95.5% confidence level
[20] = weight 120 to ≤150, 68% confidence level
[21] = weight 120 to ≤150, 95.5% confidence level
[22] = weight 150 to ≤180, 68% confidence level
[23] = weight 150 to ≤180, 95.5% confidence level
[24] = weight 180 to ≤210, 68% confidence level
[25] = weight 180 to ≤210, 95.5% confidence level
[26] = weight 210 to ≤240, 68% confidence level
[27] = weight 210 to ≤240, 95.5% confidence level
[28] = weight 240 to ≤270, 68% confidence level
[29] = weight 240 to ≤270, 95.5% confidence level
[30] = weight 270+, 68% confidence level
[31] = weight 270+, 95.5% confidence level

C#C[C@]1(O)CC[C@H]2[C@@H]3CCC4=CC(=O)CC[C@@H]4[C@H]3CC[C@@]21CC [LNG, levonorgestrel]
increase of free LNG as share of the approximate steady state level ([1]; for every 10 μg per day of EE delivered): 20% | change of free LNG in the plasma ([1]; for every one μg per day reduction or increase of EE below or above 30 μg per day): 30 picograms per ml | dose required ([2]; 25 BMI woman, 95% confidence level, 3% pregnancy rate): 26 | LNG daily dosage, high boundary value ([2]; 27.5 BMI woman, 95.5% confidence, pregnancy rate of 1.5%): 430 microgram | daily dose, low boundary value ([2]; 150 pound person, 95.5% confidence, 3 pregnancies per 100 woman years, 30 μg EE): 62.4 µg | daily dose, high boundary value ([2]; 150 pound person, 95.5% confidence, pregnancy rate of 1.5%, 30 μg EE): 302 µg | LNG Daily Required Dose, 1.5% Pregnancy Rate [2, 4]: 283 µg | LNG Daily Required Dose, 3% Pregnancy Rate [2, 4]: 47 µg | LNG Daily Required Dose, 1.5% Pregnancy Rate [2, 5]: 378 µg | LNG Daily Required Dose, 3% Pregnancy Rate [2, 5]: 0.1 µg | LNG Daily Required Dose, 1.5% Pregnancy Rate [2, 6]: 335 µg | LNG Daily Required Dose, 3% Pregnancy Rate [2, 6]: 72 µg | LNG Daily Required Dose, 1.5% Pregnancy Rate [2, 7]: 430 µg | LNG Daily Required Dose, 3% Pregnancy Rate [2, 7]: 26 µg | LNG Daily Required Dose, 1.5% Pregnancy Rate [2, 8]: 390 µg | LNG Daily Required Dose, 3% Pregnancy Rate [2, 8]: 99 µg | LNG Daily Required Dose, 1.5% Pregnancy Rate [2, 9]: 484 µg | LNG Daily Required Dose, 3% Pregnancy Rate [2, 9]: 52 µg | LNG Daily Required Dose, 1.5% Pregnancy Rate [2, 10]: 447 µg | LNG Daily Required Dose, 3% Pregnancy Rate [2, 10]: 127 µg | LNG Daily Required Dose, 1.5% Pregnancy Rate [2, 11]: 541 µg | LNG Daily Required Dose, 3% Pregnancy Rate [2, 11]: 80 µg | LNG Daily Required Dose, 1.5% Pregnancy Rate [2, 12]: 507 µg | LNG Daily Required Dose, 3% Pregnancy Rate [2, 12]: 157 µg | LNG Daily Required Dose, 1.5% Pregnancy Rate [2, 13]: 601 µg | LNG Daily Required Dose, 3% Pregnancy Rate [2, 13]: 110 µg | LNG Daily Required Dose, 1.5% Pregnancy Rate [2, 14]: 569 µg | LNG Daily Required Dose, 3% Pregnancy Rate [2, 14]: 187 µg | LNG Daily Required Dose, 1.5% Pregnancy Rate [2, 15]: 663 µg | LNG Daily Required Dose, 3% Pregnancy Rate [2, 15]: 140 µg | LNG Daily Required Dose, 1.5% Pregnancy Rate [2, 16]: 633 µg | LNG Daily Required Dose, 3% Pregnancy Rate [2, 16]: 219 µg | LNG Daily Required Dose, 1.5% Pregnancy Rate [2, 17]: 728 µg | LNG Daily Required Dose, 3% Pregnancy Rate [2, 17]: 172 µg | Daily LNG Required Dose, 1.5% Pregnancy Rate Dose [2, 18]: 171 µg/day | Daily LNG Required Dose, 3% Pregnancy Rate Dose [2, 18]: 41 µg/day | Daily LNG Required Dose, 1.5% Pregnancy Rate Dose [2, 19]: 215 µg/day | Daily LNG Required Dose, 3% Pregnancy Rate Dose [2, 19]: 19 µg/day | Daily LNG Required Dose, 1.5% Pregnancy Rate Dose [2, 20]: 258 µg/day | Daily LNG Required Dose, 3% Pregnancy Rate Dose [2, 20]: 84 µg/day | Daily LNG Required Dose, 1.5% Pregnancy Rate Dose [2, 21]: 302 µg/day | Daily LNG Required Dose, 3% Pregnancy Rate Dose [2, 21]: 62 µg/day | Daily LNG Required Dose, 1.5% Pregnancy Rate Dose [2, 22]: 331 µg/day | Daily LNG Required Dose, 3% Pregnancy Rate Dose [2, 22]: 120 µg/day | Daily LNG Required Dose, 1.5% Pregnancy Rate Dose [2, 23]: 375 µg/day | Daily LNG Required Dose, 3% Pregnancy Rate Dose [2, 23]: 98 µg/day | Daily LNG Required Dose, 1.5% Pregnancy Rate Dose [2, 24]: 389 µg/day | Daily LNG Required Dose, 3% Pregnancy Rate Dose [2, 24]: 148 µg/day | Daily LNG Required Dose, 1.5% Pregnancy Rate Dose [2, 25]: 433 µg/day | Daily LNG Required Dose, 3% Pregnancy Rate Dose [2, 25]: 126 µg/day | Daily LNG Required Dose, 1.5% Pregnancy Rate Dose [2, 26]: 432 µg/day | Daily LNG Required Dose, 3% Pregnancy Rate Dose [2, 26]: 169 µg/day | Daily LNG Required Dose, 1.5% Pregnancy Rate Dose [2, 27]: 476 µg/day | Daily LNG Required Dose, 3% Pregnancy Rate Dose [2, 27]: 147 µg/day | Daily LNG Required Dose, 1.5% Pregnancy Rate Dose [2, 28]: 459 µg/day | Daily LNG Required Dose, 3% Pregnancy Rate Dose [2, 28]: 183 µg/day | Daily LNG Required Dose, 1.5% Pregnancy Rate Dose [2, 29]: 503 µg/day | Daily LNG Required Dose, 3% Pregnancy Rate Dose [2, 29]: 161 µg/day | Daily LNG Required Dose, 1.5% Pregnancy Rate Dose [2, 30]: 472 µg/day | Daily LNG Required Dose, 3% Pregnancy Rate Dose [2, 30]: 189 µg/day | Daily LNG Required Dose, 1.5% Pregnancy Rate Dose [2, 31]: 516 µg/day | Daily LNG Required Dose, 3% Pregnancy Rate Dose [2, 31]: 167 µg/day | level of LNG equivalent ([2]; 1.5% pregnancy level): 350 μg per day | level of LNG equivalent ([2]; 3% pregnancy level): 200 μg per day | % of pregnancies ([3]; weight category >90 but ≤ 120 pounds): 1.5% | % of pregnancies ([3]; weight category >120 but ≤ 150 pounds): 2.66%
